Results as given in the supplement of paper PMC10307832.

How the values were obtained:
Experiment in all cases: relative viability (nuclei count vs DMSO), 5 days (fraction); higher = more cells survive
Seliciclib + Pemetrexed = compound: CC[C@H](CO)Nc1nc(NCc2ccccc2)c2ncn(C(C)C)c2n1 [Seliciclib] + Nc1nc2[nH]cc(CCc3ccc(C(=O)N[C@@H](CCC(=O)O)C(=O)O)cc3)c2c(=O)[nH]1 [Pemetrexed] (partner 0.2 µM)
How it was run: (§1)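 Lung cancer cell lines were seeded in 1536-well plates and dosed by pin tool the next day, with either a single drug or a fixed anchor-drug dose combined with five library-drug doses (not always all listed) spaced in √10 steps. Five days later, one step fixed the cells and stained their nuclei (final 0.05% Triton X-100, 1% formaldehyde, 1 ug/ml Hoechst), and nuclei were counted on 4× images. Relative viability is the nuclei count in treated wells divided by the count in vehicle wells, and each value is the median of duplicate plates.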

Seliciclib + Olaparib = compound: CC[C@H](CO)Nc1nc(NCc2ccccc2)c2ncn(C(C)C)c2n1 [Seliciclib] + O=C(c1cc(Cc2n[nH]c(=O)c3ccccc23)ccc1F)N1CCN(C(=O)C2CC2)CC1 [Olaparib] (partner 8 µM)
How it was run: as §1

Seliciclib + Linsitinib = compound: CC[C@H](CO)Nc1nc(NCc2ccccc2)c2ncn(C(C)C)c2n1 [Seliciclib] + C[C@]1(O)C[C@@H](c2nc(-c3ccc4ccc(-c5ccccc5)nc4c3)c3c(N)nccn32)C1 [Linsitinib] (partner 1 µM)
How it was run: as §1

Seliciclib + Vorinostat = compound: CC[C@H](CO)Nc1nc(NCc2ccccc2)c2ncn(C(C)C)c2n1 [Seliciclib] + O=C(CCCCCCC(=O)Nc1ccccc1)NO [Vorinostat] (partner 1 µM)
How it was run: as §1

Cell Line | relative viability (Seliciclib + Pemetrexed; first compound 0.08 µM) | relative viability (Seliciclib + Pemetrexed; first compound 0.253 µM) | relative viability (Seliciclib + Pemetrexed; first compound 0.8 µM) | relative viability (Seliciclib + Pemetrexed; first compound 2.53 µM) | relative viability (Seliciclib + Pemetrexed; first compound 8 µM) | relative viability (Seliciclib + Olaparib; first compound 0.08 µM) | relative viability (Seliciclib + Olaparib; first compound 0.253 µM) | relative viability (Seliciclib + Olaparib; first compound 0.8 µM) | relative viability (Seliciclib + Olaparib; first compound 2.53 µM) | relative viability (Seliciclib + Olaparib; first compound 8 µM) | relative viability (Seliciclib + Linsitinib; first compound 0.08 µM) | relative viability (Seliciclib + Linsitinib; first compound 0.253 µM) | relative viability (Seliciclib + Linsitinib; first compound 0.8 µM) | relative viability (Seliciclib + Linsitinib; first compound 2.53 µM) | relative viability (Seliciclib + Linsitinib; first compound 8 µM) | relative viability (Seliciclib + Vorinostat; first compound 0.08 µM) | relative viability (Seliciclib + Vorinostat; first compound 0.253 µM) | relative viability (Seliciclib + Vorinostat; first compound 0.8 µM) | relative viability (Seliciclib + Vorinostat; first compound 2.53 µM) | relative viability (Seliciclib + Vorinostat; first compound 8 µM)
PC-14 | 0.125 | 0.147 | 0.166 | 0.143 | 0.122 | 0.286 | 0.285 | 0.29 | 0.343 | 0.266 | 0.922 | 0.921 | 0.936 | 0.994 | 0.845 | 0.663 | 0.747 | 0.744 | 0.644 | 0.625
RERF-LC-KJ | 0.474 | 0.54 | 0.488 | 0.471 | 0.441 | 0.963 | 0.883 | 0.937 | 0.823 | 0.708 | 0.869 | 0.814 | 0.855 | 0.909 | 0.883 | 0.698 | 0.641 | 0.661 | 0.55 | 0.439
SK-LU-1 | 0.992 | 1.08 | 1.04 | 0.952 | 0.597 | 0.411 | 0.543 | 0.478 | 0.404 | 0.34 | 0.973 | 0.868 | 1.32 | 1.09 | 0.687 | 0.701 | 0.879 | 0.877 | 0.753 | 0.477
SK-MES-1 | 1 | 1.17 | 0.932 | 0.862 | 0.708 | 0.764 | 0.726 | 0.647 | 0.564 | 0.342 | 1.02 | 0.995 | 1.04 | 1.05 | 0.981 | 1.03 | 1.13 | 1.11 | 1.02 | 1.01
SW 1573 | 0.875 | 0.723 | 0.886 | 0.791 | 0.731 | 0.473 | 0.487 | 0.527 | 0.471 | 0.425 | 0.768 | 0.792 | 0.904 | 0.743 | 0.668 | 0.943 | 0.687 | 0.708 | 0.632 | 0.346
UMC-11 | 0.741 | 0.753 | 0.789 | 0.78 | 0.594 | 0.367 | 0.388 | 0.381 | 0.352 | 0.293 | 1.02 | 0.872 | 1.01 | 1.04 | 0.851 | 0.432 | 0.336 | 0.353 | 0.281 | 0.194
